The target in data set [1] is T1, epithelial sodium channel (ENaC) (Canis lupus familiaris, UniProt A0A8I3MKE6+A0A8I3Q679+Q95165).
T1 construct: endogenous in cells; host or cells: primary canine bronchial epithelial cells cultured at air-liquid interface
T1 sequence (A0A8I3Q679 1-649): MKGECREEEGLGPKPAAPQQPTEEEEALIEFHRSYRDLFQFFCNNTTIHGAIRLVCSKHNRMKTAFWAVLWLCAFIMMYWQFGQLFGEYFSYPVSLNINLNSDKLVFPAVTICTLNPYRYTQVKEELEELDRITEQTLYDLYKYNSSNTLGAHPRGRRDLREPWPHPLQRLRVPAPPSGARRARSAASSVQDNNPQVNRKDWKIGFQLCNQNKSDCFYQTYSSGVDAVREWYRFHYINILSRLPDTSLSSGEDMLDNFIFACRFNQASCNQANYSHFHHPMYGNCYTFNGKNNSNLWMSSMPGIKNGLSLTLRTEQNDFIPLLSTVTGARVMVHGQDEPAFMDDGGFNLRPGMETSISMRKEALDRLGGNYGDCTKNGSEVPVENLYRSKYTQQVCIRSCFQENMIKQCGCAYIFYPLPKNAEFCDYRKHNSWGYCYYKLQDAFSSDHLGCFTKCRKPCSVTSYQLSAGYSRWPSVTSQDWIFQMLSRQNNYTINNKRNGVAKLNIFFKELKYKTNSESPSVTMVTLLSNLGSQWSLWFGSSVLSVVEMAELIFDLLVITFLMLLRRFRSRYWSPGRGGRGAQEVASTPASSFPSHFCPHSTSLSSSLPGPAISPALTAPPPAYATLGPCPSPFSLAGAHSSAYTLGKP
T1 sequence (Q95165 1-641): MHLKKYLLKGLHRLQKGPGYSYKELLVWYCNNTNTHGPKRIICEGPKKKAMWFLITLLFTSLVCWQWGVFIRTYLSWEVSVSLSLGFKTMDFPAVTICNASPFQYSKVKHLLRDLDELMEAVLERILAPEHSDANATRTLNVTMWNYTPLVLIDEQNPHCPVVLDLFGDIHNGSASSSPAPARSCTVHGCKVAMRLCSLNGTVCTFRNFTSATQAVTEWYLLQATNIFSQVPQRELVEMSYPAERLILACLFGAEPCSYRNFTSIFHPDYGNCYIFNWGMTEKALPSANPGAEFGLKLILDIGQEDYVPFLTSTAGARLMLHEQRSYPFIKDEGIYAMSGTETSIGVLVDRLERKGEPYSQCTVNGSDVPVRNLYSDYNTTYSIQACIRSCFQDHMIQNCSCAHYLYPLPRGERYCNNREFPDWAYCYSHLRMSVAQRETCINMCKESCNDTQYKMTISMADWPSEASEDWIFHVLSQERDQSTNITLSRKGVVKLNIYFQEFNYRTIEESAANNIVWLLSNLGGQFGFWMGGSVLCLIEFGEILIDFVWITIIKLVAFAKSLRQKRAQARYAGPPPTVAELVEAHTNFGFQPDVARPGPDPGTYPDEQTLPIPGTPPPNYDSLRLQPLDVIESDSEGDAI
T1 sequence (A0A8I3MKE6 1-646): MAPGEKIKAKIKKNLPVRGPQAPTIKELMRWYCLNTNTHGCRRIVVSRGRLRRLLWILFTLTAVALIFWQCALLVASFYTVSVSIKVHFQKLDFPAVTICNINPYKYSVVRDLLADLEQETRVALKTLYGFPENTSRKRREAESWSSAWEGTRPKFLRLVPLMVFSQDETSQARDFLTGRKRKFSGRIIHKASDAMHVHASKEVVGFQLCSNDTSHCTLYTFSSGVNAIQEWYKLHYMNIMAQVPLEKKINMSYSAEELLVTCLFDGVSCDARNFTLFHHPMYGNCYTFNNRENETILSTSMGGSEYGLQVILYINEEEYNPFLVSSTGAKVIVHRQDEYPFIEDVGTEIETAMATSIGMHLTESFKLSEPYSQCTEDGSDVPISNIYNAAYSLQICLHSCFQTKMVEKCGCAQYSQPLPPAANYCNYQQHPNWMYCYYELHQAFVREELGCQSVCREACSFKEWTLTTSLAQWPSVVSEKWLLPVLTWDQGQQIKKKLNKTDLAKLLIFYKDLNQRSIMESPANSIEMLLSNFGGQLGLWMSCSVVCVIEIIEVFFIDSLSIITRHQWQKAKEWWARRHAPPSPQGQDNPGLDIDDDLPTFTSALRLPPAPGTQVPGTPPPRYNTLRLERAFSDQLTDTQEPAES
Put plainly: ENaC blocking activity, short circuit current in airway epithelial monolayers in Ussing chambers. Format: cell-based. Particulars: canine bronchial epithelia; for ENaC blocking potency relative to Amiloride: fold potency versus amiloride; for IC50: lumenal addition, propranolol 10 μM applied first. The protocol: To assess epithelial sodium channel blocker potency the compounds of the present invention involves the determination of lumenal drug inhibition of airway epithelial sodium currents measured under short circuit current (ISC) using airway epithelial monolayers mounted in Ussing chambers. Cells obtained from freshly excised human, or dog airways are seeded onto porous 0.4 micrometer Transwell® Permeable Supports (Corning Inc. Acton, Mass.), cultured at air-liquid interface (ALI) conditions in hormonally defined media, and assayed for sodium transport activity (ISC) while bathed in Krebs Bicarbonate Ringer (KBR) in Ussing chambers. All test drug additions are to the lumenal bath with approximately half-log dose additions (from 1×10^−11 M to 6×10^−5 M), and the cumulative change in ISC (decreases) recorded. All drugs are prepared in dimethyl sulfoxide as stock solutions at a concentration of approximately 1×10^−2 and stored at −20° C. Six preparations are typically run in parallel; one preparation per run incorporates 552-02 as a positive control. Before the start of the concentration-effect relationship propranolol, a non-selective […], was applied to the lumenal bath (10 μM) to inhibit the beta agonist component of the designer multiple ligand (DML). All data from the voltage clamps are collected via a computer face and analyzed off-line.
Concentration-effect relationships for all compounds are considered and analyzed Using GraphPad Prism version 3.00 for Windows, GraphPad Software, San Diego Calif. USA. IC50 values, […], are calculated and compared to the 552-02 potency as a positive control.

The target of the next data set is T2, beta-adrenergic receptor (Canis lupus familiaris, UniProt P54833).
T2 construct: endogenous in cells; host or cells: primary canine bronchial epithelial cells cultured at air-liquid interface
Put plainly: Beta agonist activity, anion secretion short circuit current in airway epithelial monolayers in Ussing chambers. Type of data set: cell-based, canine. The protocol: To assess beta agonist activity the compounds of the present invention involves the determination of lumenal drug addition to promote airway epithelial anion currents measured under short circuit current (ISC) using airway epithelial monolayers mounted in Ussing chambers. Cells obtained from freshly excised human, dog, or sheep airways are seeded onto porous 0.4 micron Transwell® Permeable Supports (Corning), cultured at air-liquid interface (ALI) conditions in hormonally defined media, and assayed for anion secretion (ISC) while bathed in Krebs Bicarbonate Ringer (KBR) in Ussing chambers. All test drug additions are to the lumenal bath with approximately half-log dose additions (from 8×10^−10 M to 6.5×10^−5 M), and the cumulative change in ISC (excitation) recorded. All drugs are prepared in dimethyl sulfoxide as stock solutions at a concentration from 1×10^−1 to 1×10^−2 M and stored at −20° C. […] Before the start of the concentration-effect relationship 552-02 a potent sodium channel blocker was applied to the apical surface (1 μM) to eliminate changes in Isc caused by sodium absorption. All data from the voltage clamps are collected via a computer interface and analyzed off-line.
Concentration-effect relationships for all compounds are considered and analyzed Using GraphPad Prism version 3.00 for Windows, GraphPad Software, San Diego Calif. USA.

The values below come from patent US8163758B2 (Parion Sciences, Inc., priority 2006, dated 2012).

T2 sequence (P54833 whole entry): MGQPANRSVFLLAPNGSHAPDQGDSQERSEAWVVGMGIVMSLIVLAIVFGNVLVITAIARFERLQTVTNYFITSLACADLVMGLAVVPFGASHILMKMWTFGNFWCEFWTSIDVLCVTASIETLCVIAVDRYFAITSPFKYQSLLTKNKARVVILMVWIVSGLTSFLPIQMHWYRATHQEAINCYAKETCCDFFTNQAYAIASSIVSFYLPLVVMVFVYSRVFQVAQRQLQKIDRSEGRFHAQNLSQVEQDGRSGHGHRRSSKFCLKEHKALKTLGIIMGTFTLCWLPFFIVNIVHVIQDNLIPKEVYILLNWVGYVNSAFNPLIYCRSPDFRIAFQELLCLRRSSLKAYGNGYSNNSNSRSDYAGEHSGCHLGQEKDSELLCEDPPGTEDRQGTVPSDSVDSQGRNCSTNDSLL

A word on the IC50: it is the concentration at which inhibition is half-maximal. By melting point is commonly meant the temperature, or range, at which the solid turns liquid. One may read the EC50 as the midpoint of the concentration-response curve. Take `N=C(NCCCCc1ccc(CCCCNC[C@H](O)c2ccc(O)c(NC=O)c2)cc1)NC(=O)c1nc(Cl)c(N)nc1N` [Compound 12, N-(5-{2-[4-(4-{4-[N′-(3,5-diamino-6-chloropyrazine-2-carbonyl)guanidino]butyl}phenyl)butylamino]-1-(R)-hydroxyethyl}-2-hydroxyphenyl)formamide]: the melting point is 138 to 140 °C. Also, in data set [1], the “ENaC blocking potency relative to Amiloride” value is listed as 132 × Amiloride and 5.7 nM corresponded to half-maximal inhibition (IC50). This molecule also showed an EC50 on beta-adrenergic receptor of 151 nM.

As for `C[C@H](CCCc1ccc(CCCCNC(=N)NC(=O)c2nc(Cl)c(N)nc2N)cc1)NC[C@H](O)c1ccc(O)c(NC=O)c1` [Compound 30, N-(5-{2-[4-(4-{4-[N′-(3,5-diamino-6-chloropyrazine-2-carbonyl)-guanidino]butyl}phenyl)-1-methylbutylamino]-1-(R)-hydroxyethyl}-2-hydroxyphenyl)formamide], the melting point is 120 to 121 °C (dec.). Also, in data set [1], the “ENaC blocking potency relative to Amiloride” value is 93 × Amiloride and the IC50 came out at 8.4 nM. Besides, the concentration giving a half-maximal response (EC50) on beta-adrenergic receptor worked out at 71.6 nM.

As for `CS(=O)(=O)Nc1cc([C@@H](O)CNCCCCc2ccc(CCCCNC(=N)NC(=O)c3nc(Cl)c(N)nc3N)cc2)ccc1O` [Compound 40, N-(5-{2-[4-(4-{4-[N′-(3,5-diamino-6-chloropyrazine-2-carbonyl)-guanidino]butyl}phenyl)butylamino]-1-(R)-hydroxyethyl}-2-hydroxyphenyl)-methanesulfonamide], the melting point was 108 to 110 °C. Besides, in data set [1], the “ENaC blocking potency relative to Amiloride” value worked out at 91 × Amiloride and half-maximal inhibition (IC50) required 9.2 nM. Further, at beta-adrenergic receptor, the midpoint of the response, the EC50, lay at 1580 nM.

For the molecule `CS(=O)(=O)Nc1cc([C@@H](O)CN(CCCCc2ccc(CCCCNC(=N)NC(=O)c3nc(Cl)c(N)nc3N)cc2)C[C@H](O)c2ccc(O)c(NS(C)(=O)=O)c2)ccc1O` [Compound 42, N-[5-(2-{[4-(4-{4-[N′-(3,5-diamino-6-chloropyrazine-2-carbonyl)-guanidino]butyl}phenyl)butyl]-[2-(R)-hydroxy-2-(4-hydroxy-3-methanesulfonyl-aminophenyl)ethyl]amino}-1-(R)-hydroxyethyl)-2-hydroxyphenyl]methane-sulfonamide], the melting point is 148 to 150 °C. Also, inhibition in data set [1] was half-maximal at 21.6 nM (IC50).
